Laboratory results: US7888386B2, “3-(phenoxyphenylmethyl)pyrrolidine compounds” (Theravance, Inc., priority 2008, dated 2011)
Where two headings read alike, the source gives them in different places.

Experiments:
[1] = target: T1, hNET (Homo sapiens, UniProt P23975); assay: hNET binding assay (Assay 1); conditions: read-out: NET pKi (converted)
T1 construct: expressed in transfected cells; host or cells: HEK-293 derived cell line, stably transfected; membrane preparation
Description: (§1) Membrane radioligand binding assays were used to measure competitive inhibition of labeled ligand (^3H-citalopram or ^3H-nisoxetine or ^3H-WIN35428) binding to membranes prepared from cells expressing the respective human recombinant transporter (hSERT or hNET or hDAT) in order to determine the pKi values of test compounds at the transporters.
(§2) Recombinant human embryonic kidney (HEK-293) derived cell lines stably transfected with hSERT or hNET, respectively, were grown in DMEM medium supplemented with 10% dialyzed FBS (for hSERT) or FBS (for hNET), 100 μg/ml penicillin, 100 μg/ml streptomycin, 2 mM L-glutamine and 250 μg/ml of the aminoglycoside antibiotic G418, in a 5% CO2 humidified incubator at 37° C. When cultures reached 80% confluence, the cells were washed thoroughly in PBS (without Ca^2+ and Mg^2+) and lifted with 5 mM EDTA in PBS. Cells were pelleted by centrifugation, resuspended in lysis buffer (10 mM Tris-HCl, pH 7.5 containing 1 mM EDTA), homogenized, pelleted by centrifugation, then resuspended in 50 mM Tris-HCl, pH 7.5 and 10% sucrose at 4° C. Protein concentration of the membrane suspension was determined using a Bio-Rad Bradford Protein Assay kit. Membranes were snap frozen and stored at −80° C. Chinese hamster ovary membranes expressing hDAT (CHO-DAT) were purchased from PerkinElmer and stored at −80° C.
(§3) Stock solutions (10 mM in DMSO) of test compound were prepared and serial dilutions made using Dilution Buffer (50 mM Tris-HCl, 120 mM NaCl, 5 mM KCl, pH 7.4, 0.1% BSA, 400 μM ascorbic acid).
(§4) Following a 60 minute incubation at 22° C. (or a period sufficient to reach equilibrium), the membranes were harvested by rapid filtration over a 96-well UniFilter GF/B plate, pretreated with 0.3% polyethyleneimine, and washed 6 times with 300 μl wash buffer (50 mM Tris-HCl, 0.9% NaCl, pH 7.5 at 4° C.). Plates were dried overnight at room temperature, ˜45 μl of MicroScint™-20 (Perkin Elmer) added and bound radioactivity quantitated via liquid scintillation spectroscopy. Competitive inhibition curves and saturation isotherms were analyzed using GraphPad Prism Software package (GraphPad Software, Inc., San Diego, Calif.). IC50 values were generated from concentration response curves using the Sigmoidal Dose Response (variable slope) algorithm in Prism GraphPad.

[2] = target: T2, hSERT (Homo sapiens, UniProt P31645); assay: hSERT binding assay (Assay 1)
T2 construct: expressed in transfected cells; host or cells: HEK-293 derived cell line, stably transfected; membrane preparation
Description: as §1, §2, §3, §4

[3] = membranes of HEK-293 cells expressing hNET, 1.0 nM 3H-nisoxetine
[4] = ratio of binding Ki at hSERT to Ki at hNET, rounded off to the nearest tenth
[5] = hNET binding, the tables list only compounds with NET pKi≧8
[6] = ratio of binding Ki at SERT to Ki at NET, the tables list only compounds with a ratio in the range 0.1-100
[7] = ratio of SERT Ki to NET Ki (binding)
[8] = ratio of SERT Ki to NET Ki from binding assays

T1 sequence (P23975 whole entry): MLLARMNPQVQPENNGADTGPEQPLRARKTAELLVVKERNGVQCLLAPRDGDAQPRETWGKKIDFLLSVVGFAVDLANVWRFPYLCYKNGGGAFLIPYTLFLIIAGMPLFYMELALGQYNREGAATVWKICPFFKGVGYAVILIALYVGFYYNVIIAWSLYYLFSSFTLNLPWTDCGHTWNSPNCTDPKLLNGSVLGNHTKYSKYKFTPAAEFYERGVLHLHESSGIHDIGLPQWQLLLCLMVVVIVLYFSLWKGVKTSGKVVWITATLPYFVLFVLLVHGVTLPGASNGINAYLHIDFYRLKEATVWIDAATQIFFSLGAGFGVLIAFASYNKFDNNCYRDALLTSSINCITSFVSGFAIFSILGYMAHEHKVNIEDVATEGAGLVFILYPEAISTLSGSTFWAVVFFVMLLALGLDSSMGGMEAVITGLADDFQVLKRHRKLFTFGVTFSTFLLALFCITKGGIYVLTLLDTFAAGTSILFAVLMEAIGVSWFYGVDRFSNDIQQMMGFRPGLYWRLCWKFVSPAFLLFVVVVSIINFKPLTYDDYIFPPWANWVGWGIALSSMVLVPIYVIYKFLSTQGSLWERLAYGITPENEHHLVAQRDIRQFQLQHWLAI
T2 sequence (P31645 whole entry): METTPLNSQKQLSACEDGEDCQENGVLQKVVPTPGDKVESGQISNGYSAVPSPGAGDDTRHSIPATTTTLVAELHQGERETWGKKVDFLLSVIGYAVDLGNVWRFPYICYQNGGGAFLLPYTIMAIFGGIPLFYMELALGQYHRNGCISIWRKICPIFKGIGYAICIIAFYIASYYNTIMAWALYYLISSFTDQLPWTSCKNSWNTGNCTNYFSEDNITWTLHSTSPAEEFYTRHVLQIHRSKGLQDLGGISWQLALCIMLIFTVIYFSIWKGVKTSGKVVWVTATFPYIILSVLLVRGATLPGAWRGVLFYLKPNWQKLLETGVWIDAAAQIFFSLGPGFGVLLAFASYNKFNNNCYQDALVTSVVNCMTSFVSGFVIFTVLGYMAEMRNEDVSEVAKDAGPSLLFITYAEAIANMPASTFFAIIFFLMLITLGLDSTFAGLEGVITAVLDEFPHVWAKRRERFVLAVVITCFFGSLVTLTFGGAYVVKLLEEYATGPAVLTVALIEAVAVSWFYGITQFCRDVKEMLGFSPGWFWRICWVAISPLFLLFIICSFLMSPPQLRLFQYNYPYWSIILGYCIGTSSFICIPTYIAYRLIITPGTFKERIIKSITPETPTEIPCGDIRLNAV

COc1ccccc1O[C@@H](c1cc(C)cc(F)c1)[C@H]1CCNC1 (racemic) [Compound 20-36]
Ki [1, 3]: 1.26 nM
SERT Ki/NET Ki [2, 4]: 7.9

c1ccc(Oc2cccc(OC(c3ccccc3)C3CCNC3)c2)cc1 (centres unmarked) [Compound 21-13]
Ki [1, 3]: 1.26 nM
SERT Ki/NET Ki [2, 4]: 1.3

CC(C)c1ccccc1OC(c1ccccc1)C1CCNC1 (centres unmarked) [Compound 19-12]
Ki [1, 3]: 2 nM
SERT Ki/NET Ki [2, 4]: 16

CC(=O)c1cc(F)cc(F)c1O[C@@H](c1ccccc1)[C@H]1CCNC1 [44-6]
Ki [1, 5]: 1.58 nM
SERT Ki/NET Ki [2, 6]: 13

N#Cc1cccc([C@H](Oc2c(F)cc(F)cc2F)[C@H]2CCNC2)c1 [45-3]
SERT Ki/NET Ki [2, 6]: 3.2

NC(=O)c1cccc(C(Oc2c(F)ccc(F)c2Cl)C2CCNC2)c1 (centres unmarked) [41-38]
SERT Ki/NET Ki [2, 7]: 0.1

COc1ccc(C)cc1OC(c1ccccc1)C1CCNC1 (centres unmarked) [29-27]
SERT Ki/NET Ki [2, 8]: 2

c1ccc(-c2ccccc2OC(c2ccccc2)C2CCNC2)cc1 (centres unmarked) [Compound 19-19]
Ki [1, 3]: 2 nM
SERT Ki/NET Ki [2, 4]: 32

Fc1c(Cl)cccc1O[C@H](c1ccccc1)[C@@H]1CCNC1 [Compound 25-5]
Ki [1, 3]: 1.58 nM
SERT Ki/NET Ki [2, 4]: 0.1

COc1cccc(F)c1O[C@@H](c1ccccc1)[C@H]1CCNC1 [31-16]
Ki ([1]; hNET binding assay): 0.2 nM
SERT Ki/NET Ki [2, 8]: 79

Clc1c(Oc2ccccc2)cccc1OC(c1ccccc1)C1CCNC1 (centres unmarked) [Compound 25-15]
Ki [1, 3]: 2.51 nM
SERT Ki/NET Ki [2, 4]: 0.2

Fc1cc(F)cc([C@@H](Oc2c(Cl)c(F)cc(F)c2Cl)[C@@H]2CCNC2)c1 [48-3]
Ki [1, 5]: 0.251 nM
SERT Ki/NET Ki [2, 6]: 2

Cc1cc(F)cc(C(Oc2ccc(Cl)cc2F)C2CCNC2)c1 (centres unmarked) [28-13]
Ki ([1]; hNET binding assay): 5.01 nM
SERT Ki/NET Ki [2, 8]: 0.5

Fc1c(Cl)cccc1OC(c1ccccc1)C1CCNC1 (centres unmarked) [Compound 25-4]
SERT Ki/NET Ki [2, 4]: 5

COc1ccccc1OC(c1ccccc1Cl)C1CCNC1 (centres unmarked) [Compound 20-17]
Ki [1, 3]: 1 nM
SERT Ki/NET Ki [2, 4]: 13

Fc1ccc(Cl)c(OC(c2ccccc2)C2CCNC2)c1 (centres unmarked) [29-12]
Ki ([1]; hNET binding assay): 1.58 nM
SERT Ki/NET Ki [2, 8]: 2

Fc1ccc(Cl)c(Cl)c1OC(c1ccccc1)C1CCNC1 (centres unmarked) [40-12]
Ki ([1]; hNET binding): 0.251 nM
SERT Ki/NET Ki [2, 7]: 1.3

COc1ccccc1OC(c1cc(F)cc(F)c1)C1CCNC1 (racemic) [Compound 20-32]
Ki [1, 3]: 0.794 nM
SERT Ki/NET Ki [2, 4]: 10

COc1ccccc1O[C@H](c1cc(F)cc(F)c1)[C@@H]1CCNC1 [Compound 20-34]
Ki [1, 3]: 3.98 nM
SERT Ki/NET Ki [2, 4]: 1

Cc1ccc(F)c(O[C@@H](c2ccccc2)[C@H]2CCNC2)c1 [29-9]
Ki ([1]; hNET binding assay): 1.26 nM
SERT Ki/NET Ki [2, 8]: 10

NC(=O)c1cccc(C(Oc2c(F)ccc(F)c2Cl)C2CCNC2)c1 (centres unmarked) [41-36]
Ki ([1]; hNET binding): 1 nM
SERT Ki/NET Ki [2, 7]: 7.9

Fc1ccc(Cl)cc1OC(c1ccccc1)C1CCNC1 (centres unmarked) [29-4]
Ki ([1]; hNET binding assay): 1.26 nM
SERT Ki/NET Ki [2, 8]: 1.6

Cc1ccc(F)c(O[C@H](c2ccccc2)[C@@H]2CCNC2)c1Cl [40-29]
Ki ([1]; hNET binding): 0.2 nM
SERT Ki/NET Ki [2, 7]: 0.4

Fc1ccc(F)c(O[C@@H](c2ccccc2)[C@H]2CCNC2)c1 [29-2]
Ki ([1]; hNET binding assay): 1.26 nM
SERT Ki/NET Ki [2, 8]: 32

Cc1ccc(F)c(O[C@H](c2ccccc2)[C@@H]2CCNC2)c1F [40-24]
Ki ([1]; hNET binding): 1.58 nM
SERT Ki/NET Ki [2, 7]: 0.4

COc1ccc(F)c(OC(c2ccccc2)C2CCNC2)c1Cl (centres unmarked) [40-35]
Ki ([1]; hNET binding): 0.398 nM
SERT Ki/NET Ki [2, 7]: 0.3

CCC(=O)c1ccccc1OC(c1ccccc1)C1CCNC1 (centres unmarked) [Compound 19-26]
Ki [1, 3]: 3.98 nM
SERT Ki/NET Ki [2, 4]: 50

COc1cccc(C(Oc2cccc(Cl)c2Cl)C2CCNC2)c1 (centres unmarked) [Compound 26-6]
Ki ([1]; hNET binding assay): 3.98 nM
SERT Ki/NET Ki [2, 8]: 0.1

Cc1ccc(Cl)c(OC(c2ccccc2Cl)C2CCNC2)c1Cl (centres unmarked) [41-18]
Ki ([1]; hNET binding): 1.58 nM
SERT Ki/NET Ki [2, 7]: 0.4

COc1ccc(F)c(Cl)c1OC(c1ccccc1)C1CCNC1 (centres unmarked) [40-23]
Ki ([1]; hNET binding): 3.16 nM
SERT Ki/NET Ki [2, 7]: 0.1

COc1cc(Cl)ccc1O[C@@H](c1cc(F)cc(F)c1)[C@H]1CCNC1 [28-19]
Ki ([1]; hNET binding assay): 1 nM
SERT Ki/NET Ki [2, 8]: 0.8

Fc1cc(F)c(Cl)c(O[C@@H](c2ccccc2)[C@H]2CCNC2)c1 [Ex. 8-1, (S)-3-[(R)-(2-Chloro-3,5-difluorophenoxy)phenylmethyl]pyrrolidine]
Ki ([1]; hNET binding): 2 nM
SERT Ki/NET Ki [2, 7]: 2.5

COc1ccc(F)c(OC(c2ccccc2Cl)C2CCNC2)c1 (centres unmarked) [32-3]
SERT Ki/NET Ki [2, 8]: 4

Fc1cc(Cl)cc(OC(c2ccccc2)C2CCNC2)c1 (centres unmarked) [34-4]
SERT Ki/NET Ki [2, 8]: 0.3

NC(=O)c1cccc([C@H](Oc2cc(Cl)ccc2Cl)[C@H]2CCNC2)c1 [32-17]
SERT Ki/NET Ki [2, 8]: 2

Cc1cccc(Cl)c1OC(c1ccccc1)C1CCNC1 (centres unmarked) [31-13]
SERT Ki/NET Ki [2, 8]: 0.6

FC(F)(F)c1cc(Cl)ccc1OC(c1ccccc1)C1CCNC1 (centres unmarked) [27-21]
SERT Ki/NET Ki [2, 8]: 0.6

Fc1cc(F)cc([C@H](Oc2cc(Cl)ccc2Cl)[C@H]2CCNC2)c1 [32-25]
SERT Ki/NET Ki [2, 8]: 25

Fc1ccc(C(Oc2cc(Cl)ccc2Cl)C2CCNC2)cc1 (centres unmarked) [32-11]
SERT Ki/NET Ki [2, 8]: 4

Fc1cc(F)cc(C(Oc2cc(Cl)ccc2Cl)C2CCNC2)c1 (centres unmarked) [32-24]
SERT Ki/NET Ki [2, 8]: 7.9

Fc1cc(F)cc(C(Oc2c(Cl)ccc(Cl)c2Cl)C2CCNC2)c1 (centres unmarked) [41-13]
SERT Ki/NET Ki [2, 7]: 2

Cc1ccc(Cl)c(OC(c2ccccc2)C2CCNC2)c1Cl (centres unmarked) [40-33]
SERT Ki/NET Ki [2, 7]: 3.2

COc1cccc(C(Oc2cc(Cl)ccc2Cl)C2CCNC2)c1 (centres unmarked) [32-13]
SERT Ki/NET Ki [2, 8]: 0.3

Fc1cc(F)cc(C(Oc2cc(Cl)cc(Cl)c2)C2CCNC2)c1 (centres unmarked) [35-16]
SERT Ki/NET Ki [2, 7]: 0.5

Cc1ccc(Cl)c(OC(c2ccccc2)C2CCNC2)c1Cl (centres unmarked) [40-34]
SERT Ki/NET Ki [2, 7]: 0.1

Cc1ccc(Cl)c(OC(c2ccccc2)C2CCNC2)c1Cl (centres unmarked) [40-31]
SERT Ki/NET Ki [2, 7]: 0.6

Cc1ccc(OC(c2ccccc2)C2CCNC2)cc1F (centres unmarked) [33-3]
SERT Ki/NET Ki [2, 8]: 0.3

Cc1ccc(Cl)c(OC(c2ccccc2)C2CCNC2)c1Cl (centres unmarked) [40-32]
SERT Ki/NET Ki [2, 7]: 1

Cc1cc(F)cc(C(Oc2c(Cl)ccc(C)c2Cl)C2CCNC2)c1 (centres unmarked) [41-22]
SERT Ki/NET Ki [2, 7]: 0.3

Clc1ccc(Cl)c(OC(c2ccccc2Cl)C2CCNC2)c1 (centres unmarked) [32-7]
SERT Ki/NET Ki [2, 8]: 0.6

Fc1ccc(Cl)c(O[C@H](c2ccccc2)[C@@H]2CCNC2)c1 [29-13]
SERT Ki/NET Ki [2, 8]: 0.2

c1ccc(OC(c2ccccc2)C2CCNC2)cc1 (centres unmarked) [Ex. 17-1, 3-(Phenoxyphenylmethyl)pyrrolidine]
Ki [1, 3]: 6.31 nM

Cc1ccc(Cl)cc1OC(c1ccccc1)C1CCNC1 (centres unmarked) [29-18]
SERT Ki/NET Ki [2, 8]: 0.1

N#Cc1cccc(C(Oc2cc(Cl)ccc2Cl)C2CCNC2)c1 (centres unmarked) [32-15]
SERT Ki/NET Ki [2, 8]: 13

Fc1cc(F)cc(C(Oc2cc(Cl)ccc2F)C2CCNC2)c1 (centres unmarked) [32-2]
SERT Ki/NET Ki [2, 8]: 2.5

Fc1c(F)c(F)c(O[C@H](c2ccccc2)[C@@H]2CCNC2)c(F)c1F [49-2]
SERT Ki/NET Ki [2, 6]: 0.2

c1ccc(COc2ccccc2OC(c2ccccc2)C2CCNC2)cc1 (centres unmarked) [Compound 19-23]
SERT Ki/NET Ki [2, 4]: 3.2

Cc1ccc(OC(c2ccccc2)C2CCNC2)c([N+](=O)[O-])c1 (centres unmarked) [27-33]
SERT Ki/NET Ki [2, 8]: 1.6
